Experimental findings from ChEMBL document CHEMBL3822389, “New insights into 3-(aminomethyl)naphthoquinones: Evaluation of cytotoxicity, electrochemical behavior and search for structure-activity correlation” (Bioorg Med Chem Lett, 2016) are described below.

A short description of test [1]: Cytotoxicity against human HCT8 cells after 72 hrs by MTT assay. In kind it is functional, cell-based, HCT-8. On the technique in general: Formazan colour is commonly taken as a measure of viable cells.
Test [2] in a line: Cytotoxicity against human SF295 cells after 72 hrs by MTT assay. In kind it is functional, cell-based, SF-295.
The nature of test [3]: Cytotoxicity against human HL60 cells after 72 hrs by MTT assay. It counts as functional, cell-based, HL-60.
The test system of test [4] is MDA-MB-435. The experiment in a line: Cytotoxicity against human MDA-MB-435 cells after 72 hrs by MTT assay. It counts as functional, cell-based.

As a reminder, the IC50 is the concentration at which inhibition is half-maximal.

Structures are written as SMILES.

Regarding `CCCCCCCNC(C1=C(O)C(=O)c2ccccc2C1=O)c1ccccc1O` (stereo not given), the IC50 in test [1] (Homo sapiens, HCT-8, 72 h) came out at 19.7 µM; in test [2] (Homo sapiens, SF-295, 72 h), 18.9 µM; in test [3] (Homo sapiens, HL-60, 72 h) it was 7.7 µM; in test [4] (Homo sapiens, MDA-MB-435, 72 h), 33.3 µM.
On the same counts, the results for `CC(C)(C)OC(=O)NCCCNC(C1=C(O)C(=O)c2ccccc2C1=O)c1ccc([N+](=O)[O-])cc1` (stereo not given) are more than 40 µM, more than 40 µM, more than 40 µM and more than 40 µM.
On the same counts, the results for `O=C1C(O)=C(C(NCCCCl)c2ccccc2O)C(=O)c2ccccc21` (stereo not given) are 17.7 µM, 17.5 µM, 8.1 µM and 30.1 µM.
On the same counts, the results for `CC(C)(C)OC(=O)NCCNC(C1=C(O)C(=O)c2ccccc2C1=O)c1ccc(Cl)cc1Cl` (stereo not given) are more than 40 µM, more than 40 µM, more than 40 µM and more than 40 µM.
Take `CCCCNC(C1=C(O)C(=O)c2ccccc2C1=O)c1ccc([N+](=O)[O-])cc1` (stereo not given): the IC50 in test [2] (Homo sapiens, SF-295, 72 h) was more than 40 µM; in test [3] (Homo sapiens, HL-60, 72 h) it was more than 40 µM.
For `Cc1ccc(NC(C2=C(O)C(=O)c3ccccc3C2=O)c2ccccn2)cc1` (stereo not given), the half-maximal inhibitory concentration (IC50) in test [1] (Homo sapiens, HCT-8, 72 h) is more than 40 µM; in test [2] (Homo sapiens, SF-295, 72 h) it was more than 40 µM; in test [3] (Homo sapiens, HL-60, 72 h), more than 40 µM; in test [4] (Homo sapiens, MDA-MB-435, 72 h), more than 40 µM.
For the compound `O=C1C(O)=C(C(NCc2ccccc2)c2cc(Br)ccc2O)C(=O)c2ccccc21` (stereo not given) [listing 1 of 2 here], the IC50 in test [1] (Homo sapiens, HCT-8, 72 h) is 15.9 µM; in test [2] (sf-295), 10.7 µM; in test [3] (hl-60) it was 4.9 µM; in test [4] (Homo sapiens, MDA-MB-435, 72 h), more than 40 µM.
As for `COc1cccc2c1C(=O)c1c(O)c3c(c(O)c1C2=O)C[C@@](O)(C(=O)CO)C[C@@H]3O[C@H]1C[C@H](N)[C@H](O)[C@H](C)O1` [DOXORUBICIN], the IC50 in test [2] (Homo sapiens, SF-295, 72 h) is 0.39 µM; in test [3] (Homo sapiens, HL-60, 72 h) it was 0.03 µM.
On to `O=C1C(O)=C(C(NCc2ccco2)c2ccccc2O)C(=O)c2ccccc21` (stereo not given), for which the IC50 in test [1] (hct-8) was 3 µM; in test [2] (sf-295) it was 1.8 µM; in test [3] (hl-60), 1.2 µM; in test [4] (mda-mb-435), 2.9 µM.
Turning to `O=C1C(O)=C(C(NCc2ccccc2)c2ccccn2)C(=O)c2ccccc21` (stereo not given), the IC50 in test [1] (Homo sapiens, HCT-8, 72 h) is 2.2 µM; in test [2] (Homo sapiens, SF-295, 72 h), 1.3 µM; in test [3] (Homo sapiens, HL-60, 72 h) it was 4.8 µM; in test [4] (Homo sapiens, MDA-MB-435, 72 h), more than 40 µM.
Turning to `O=C1C(O)=C(C(NCc2ccccn2)c2ccccc2)C(=O)c2ccccc21` (stereo not given), the IC50 is 6.3 µM in test [1] (hct-8), 13.5 µM in test [2] (sf-295), 5.4 µM in test [3] (hl-60) and 3.6 µM in test [4] (mda-mb-435).
On to `O=C1C(O)=C(C(NCCCCl)c2ccccc2)C(=O)c2ccccc21` (stereo not given), for which the IC50 in test [1] (Homo sapiens, HCT-8, 72 h) is more than 40 µM; in test [2] (Homo sapiens, SF-295, 72 h), more than 40 µM; in test [3] (Homo sapiens, HL-60, 72 h), more than 40 µM; in test [4] (Homo sapiens, MDA-MB-435, 72 h), more than 40 µM.
For `CCCCCCCCCCNC(C1=C(O)C(=O)c2ccccc2C1=O)c1ccccc1O` (stereo not given), the IC50 was found to be 32.2 µM in test [1] (Homo sapiens, HCT-8, 72 h); 23.1 µM in test [2] (Homo sapiens, SF-295, 72 h); 12.2 µM in test [3] (Homo sapiens, HL-60, 72 h); 30.9 µM in test [4] (Homo sapiens, MDA-MB-435, 72 h).
Take `CC(C)(C)OC(=O)NCCNC(C1=C(O)C(=O)c2ccccc2C1=O)c1ccccc1O` (stereo not given): the IC50 was 10.8 µM in test [1] (Homo sapiens, HCT-8, 72 h); 15.9 µM in test [2] (Homo sapiens, SF-295, 72 h); 19.2 µM in test [3] (Homo sapiens, HL-60, 72 h); 26.3 µM in test [4] (Homo sapiens, MDA-MB-435, 72 h).
Turning to `O=C1C(O)=C(C(NCc2ccccc2)c2ccccc2O)C(=O)c2ccccc21` (stereo not given) [listing 1 of 2 here], the IC50 was determined as 15.6 µM in test [1] (hct-8); 23.1 µM in test [2] (Homo sapiens, SF-295, 72 h); 3.9 µM in test [3] (Homo sapiens, HL-60, 72 h); 18.9 µM in test [4] (mda-mb-435).
On to `CCCCCCCCCCNC(C1=C(O)C(=O)c2ccccc2C1=O)c1cc(Br)ccc1O` (stereo not given), for which the half-maximal inhibitory concentration (IC50) in test [1] (Homo sapiens, HCT-8, 72 h) was more than 40 µM; in test [2] (Homo sapiens, SF-295, 72 h) it was more than 40 µM; in test [3] (Homo sapiens, HL-60, 72 h), more than 40 µM; in test [4] (Homo sapiens, MDA-MB-435, 72 h), more than 40 µM.
As for `CC(C)(C)OC(=O)NCCCNCC1=C(O)C(=O)c2ccccc2C1=O`, the IC50 in test [1] (Homo sapiens, HCT-8, 72 h) was more than 40 µM; in test [2] (Homo sapiens, SF-295, 72 h), more than 40 µM; in test [3] (Homo sapiens, HL-60, 72 h), more than 40 µM; in test [4] (Homo sapiens, MDA-MB-435, 72 h), more than 40 µM.
Regarding `Cc1ccc(O)c(C(NCc2ccccc2)C2=C(O)C(=O)c3ccccc3C2=O)c1` (stereo not given), the IC50 is 12.1 µM in test [1] (Homo sapiens, HCT-8, 72 h); 14.4 µM in test [2] (sf-295); 18.7 µM in test [4] (Homo sapiens, MDA-MB-435, 72 h).
Regarding `O=C1C(O)=C(C(NCc2ccccc2)c2cc(Br)ccc2O)C(=O)c2ccccc21` (stereo not given) [listing 2 of 2 here], the IC50 in test [1] (hct-8) came out at 14.9 µM; in test [2] (Homo sapiens, SF-295, 72 h) it was 17.4 µM; in test [3] (Homo sapiens, HL-60, 72 h), 8.4 µM; in test [4] (mda-mb-435) it was 25.2 µM.
Regarding `O=C1C(O)=C(C(NCc2ccccc2)c2ccccc2O)C(=O)c2ccccc21` (stereo not given) [listing 2 of 2 here], the IC50 in test [1] (Homo sapiens, HCT-8, 72 h) came to 14.4 µM; in test [2] (sf-295) it was 11.6 µM; in test [3] (hl-60), 4.6 µM; in test [4] (Homo sapiens, MDA-MB-435, 72 h), 18.3 µM.
Consider `O=C1C(O)=C(CNCCCCl)C(=O)c2ccccc21`, for which the IC50 in test [1] (Homo sapiens, HCT-8, 72 h) is more than 40 µM; in test [2] (Homo sapiens, SF-295, 72 h), more than 40 µM; in test [3] (Homo sapiens, HL-60, 72 h) it was more than 40 µM; in test [4] (Homo sapiens, MDA-MB-435, 72 h), more than 40 µM.
Consider `O=C1C(O)=C(C(NCCCCl)c2cccc(O)c2)C(=O)c2ccccc21` (stereo not given), for which the IC50 in test [1] (Homo sapiens, HCT-8, 72 h) is more than 40 µM; in test [2] (Homo sapiens, SF-295, 72 h) it was more than 40 µM; in test [3] (Homo sapiens, HL-60, 72 h), more than 40 µM; in test [4] (Homo sapiens, MDA-MB-435, 72 h), more than 40 µM.
Take `CCCCNC(C1=C(O)C(=O)c2ccccc2C1=O)c1ccc(Cl)cc1Cl` (stereo not given): the IC50 in test [2] (Homo sapiens, SF-295, 72 h) was more than 40 µM; in test [3] (Homo sapiens, HL-60, 72 h) it was more than 40 µM.
